Data on one compound can be found in patent publication US12064577B2, “Drug-coated balloon” (Intersect ENT, Inc., priority 2015, dated 2024).

The nature of series [1]: Drug uptake into sinus tissue after drug coated balloon delivery, ovine model (HPLC of tissue samples). It is filed as in vivo. The note with it: other: drug coated balloon expanded in the maxillary sinus, sheep, Example 3 balloon (solvent vapor annealed coating) expanded 5 minutes in maxillary sinus, tissue sampled after 7 days. On the procedure:
(§1) A 30 mm 80A Pellethane® compliant balloon was cleaned with 70% isopropanol and dried in an oven. The balloon was then treated with oxygen plasma and immediately spray coated with a mometasone furoate formulation listed in Table 1. Post-spray pass drying was conducted with nitrogen gas. Next, the drug coated balloon was treated by solvent vapor annealing (i.e., exposed to a solvent vapor) in a sealed chamber saturated with ethanol for four hours at room temperature. After solvent vapor annealing, the balloon was re-folded and heat set using a custom pleating machine. The coated balloon was then sheathed and packaged under nitrogen gas and sterilized by electron beam irradiation.
(§2) A drug coated balloon made using the process described in Example 3 was advanced to a sheep maxillary sinus using a rigid 4 mm endoscope and expanded for 5 minutes, and then deflated and removed from the nostril. After 7 days the animal was sacrificed and tissue samples obtained from the maxillary sinus and surrounding tissues. […] Plasma concentration of mometasone furoate was also measured over 7 days. Referring to Table 3 below and FIG. 3, mometasone furoate (MF) plasma concentration was low and found to decrease over the 7 day period from an initially low value. […] Low systemic exposure generally lowers the risk of a patient experiencing side effects from the delivered drug.

Series [2] can be described thus: Plasma concentration of mometasone furoate after drug coated balloon delivery to ovine maxillary sinus. The series is classed as in vivo. The note with it: other: drug coated balloon expanded in the maxillary sinus, sheep, read-out: MF Plasma Concentration. On the procedure: as §1, §2

Read-outs that look alike come from different tables or passages of the source. Some results are limits rather than exact numbers.

With `C[C@@H]1C[C@H]2[C@@H]3CCC4=CC(=O)C=C[C@]4(C)[C@@]3(Cl)[C@@H](O)C[C@]2(C)[C@@]1(OC(=O)c1ccco1)C(=O)CCl` [mometasone furoate], the concentration at 7 days in series [1] (read-out: mometasone furoate concentration in maxillary sinus tissue) came out at 146 ng/g; in series [1] (tissues surrounding the maxillary sinus, read-out: mometasone furoate concentration in tissues surrounding the maxillary sinus), 55 ng/g. The concentration at 0 day in series [2] (day 0 after Example 3 balloon delivery to maxillary sinus) was determined as 0.3 ng/mL. The concentration at 1 day in series [2] (day 1 after Example 3 balloon delivery to maxillary sinus) came to 0.3 ng/mL. The concentration at 4 day in series [2] (day 4 after Example 3 balloon delivery to maxillary sinus) is 0.05 ng/mL. Besides, the concentration at 7 day in series [2] (day 7 after Example 3 balloon delivery to maxillary sinus) is below 0.01 ng/mL.
